# Test results reported in patent publication US8686050B2, “Diglycidic ether derivative therapeutics and methods for their use” (British Columbia Cancer Agency Branch, priority 2008, dated 2014).
# “Also recorded” adds a separate entry of the source. Structures can show the parent of a compound that is named as a salt.
# Assays:
# [1] = molecular target: T1, AR (Homo sapiens, UniProt P10275, T878A); assay: AR protein in harvested LNCaP xenografts (IHC, western blot); format: in vivo, mice; parameters: LNCaP human prostate cancer cells express endogenous androgen receptor (AR); from tissue; host or cells: LNCaP xenografts harvested from castrated NOD-SCID mice; conditions: I.V. or I.T delivery
# T1 sequence (P10275 1-920 T878A): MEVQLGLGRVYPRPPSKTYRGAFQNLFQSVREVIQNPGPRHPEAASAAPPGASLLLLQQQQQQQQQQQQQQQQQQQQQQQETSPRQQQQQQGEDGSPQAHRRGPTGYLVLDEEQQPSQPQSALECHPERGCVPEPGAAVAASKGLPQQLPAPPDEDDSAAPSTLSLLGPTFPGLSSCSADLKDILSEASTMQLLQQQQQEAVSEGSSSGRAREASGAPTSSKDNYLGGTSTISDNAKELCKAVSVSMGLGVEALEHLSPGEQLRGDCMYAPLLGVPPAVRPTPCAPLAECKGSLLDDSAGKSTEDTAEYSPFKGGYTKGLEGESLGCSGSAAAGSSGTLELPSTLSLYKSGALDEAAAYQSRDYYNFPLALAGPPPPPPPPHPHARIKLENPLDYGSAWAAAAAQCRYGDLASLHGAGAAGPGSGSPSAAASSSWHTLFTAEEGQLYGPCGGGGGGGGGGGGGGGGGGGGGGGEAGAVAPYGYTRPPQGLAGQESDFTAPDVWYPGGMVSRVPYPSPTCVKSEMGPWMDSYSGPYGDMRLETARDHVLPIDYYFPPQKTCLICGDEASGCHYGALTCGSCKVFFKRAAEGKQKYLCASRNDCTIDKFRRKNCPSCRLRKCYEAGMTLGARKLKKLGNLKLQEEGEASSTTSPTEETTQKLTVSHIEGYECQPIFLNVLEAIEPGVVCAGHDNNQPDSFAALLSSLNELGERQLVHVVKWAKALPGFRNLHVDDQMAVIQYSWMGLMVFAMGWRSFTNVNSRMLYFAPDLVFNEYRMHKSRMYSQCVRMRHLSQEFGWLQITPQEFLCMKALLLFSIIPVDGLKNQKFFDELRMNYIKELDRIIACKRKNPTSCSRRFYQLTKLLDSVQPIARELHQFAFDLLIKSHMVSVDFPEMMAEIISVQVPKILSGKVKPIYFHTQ
# Method: Levels of cytokeratin 18 were measured as an indication of amount of epithelial cells in the xenograft samples.
# [2] = system: LNCaP xenografts; assay: LNCaP subcutaneous xenografts in castrated mice; format: in vivo, NOD-SCID male mice
# Method: Six to eight-week old male athymic SCID mice were inoculated subcutaneously in the flank region via a 27-gauge needle with a 150 μl suspension of LNCaP or PC3 human prostate cancer cells (1×10^6 cells). The inoculations took place while the animal was under isofluorane anaesthesia. The tumor take rate is approximately 75%. Mice bearing tumors of 100 mm^3 were randomly assigned to treatment groups. Castration was performed as described below. Tumor volume (formula: L×W×H×0.5236) was measured in mice bearing LNCaP subcutaneous tumors that became palpable or visible and at least 40 mm^3. The animals were monitored daily and tumors were measured every 5 days.
smiles,measurement,setting,value
"CC(C)(c1ccc(OCC(O)CO)cc1)c1ccc(OCC(O)CCl)cc1 (stereo not shown) [185-9-2, BADGE.HCL.H2O]",levels of AR protein in xenografts,[1],does not reduce levels of AR protein; also recorded: did not decrease levels of AR protein
same,"size of LNCaP xenograft tumors, intratumoral injection","[2]; castrated mice, I.T. every 5 days, 20 mg/kg body weight, 20 mg/kg",reduced the size of the tumors; also recorded: significantly reduce the tumors
same,"size of LNCaP xenograft tumors, intravenous injection","[2]; castrated mice, I.V. 50 mg/kg body weight every other day",reduced the size of the tumors
same,"LNCaP tumor volume at the duration (end) of the experiment, intratumoral","[2]; castrated mice, i.t. every 5 days, five doses",35.4±15.7 mm^3
same,LNCaP tumor volume within 2 weeks of i.v. injection,"[2]; castrated mice, i.v. 50 mg/kg every other day",64.3±29.6 mm^3
same,apoptosis in xenografts (TUNEL),"[2]; intravenous delivery, IHC",increased apoptosis
same,proliferation in xenografts (Ki67),"[2]; intravenous delivery, IHC",reduced proliferation
